Data reported in US11642322B2, “Food supplement and composition comprising choline butyrate salt and/or butyrylcholine” (A[…], priority 2016, dated 2023).
Where two headings read alike, the source gives them in different places.

Assays:
coccidiose = assay: Influence on Coccidiose infection (chickens in a shed infected with coccidiose); conditions: 1100 mg per kilogram feed, till day 39
Text: 496 days old ROSS® 308 meat chickens were used for this test and were placed in a shed that was infected with coccidiose. The test lasted from the first day of life of the chickens till day 39. […] The uncertainty of the measurement value is lower than 0.05.

villi = conditions: 1100 mg per kilogram feed; for average length of the villi: 5 chickens
Experimental: 20 days old ROSS® 308 meat chickens were used for this test. The test lasted from the first day of life of the chickens till day 39. […] The average length of the villi of 5 chickens was measured for each group after 14 days. […] The average length of the villi of 5 chickens was measured for each group after 39 days. […] The uncertainty of the measurement value is lower than 0.05.
(§1) The design of the test was for the rest similar to the one described above.

[1] = 1100 mg per kilogram feed, first day of life till day 39
Text: 396 days old ROSS® 308 meat chickens were used for this test. The test lasted from the first day of life of the chickens till day 39. […] The uncertainty of the measurement value is lower than 0.05.
as §1

Experimental for CD3+ T-cells: 20 days old ROSS® 308 meat chickens were used for this test. The test lasted from the first day of life of the chickens till day 14. […] On day 14, the average amount of CD3+ T-cells was determined for both groups.

| SMILES | animals that died, supplemented group versus control (coccidiose) | decrease of the FCR value versus control group (coccidiose) [%] | FCR value (coccidiose; test group) | increase of the length of the villi compared to the control group (villi; after 14 days) [%] | average length of the villi (villi; after 14 days) [μm] | increase of the length of the villi compared to the control group (villi; after 39 days) [%] | average length of the villi (villi; after 39 days) [μm] | increase of the surface percentage for CD3+ versus control group (CD3+ T-cells; day 14, 1100 mg per kilogram feed) [%] | surface percentage for CD3+ (CD3+ T-cells; day 14, test group, 1100 mg per kilogram feed) [surface percentage] | decrease of the FCR value with respect to the control group [1] [%] | FCR value ([1]; test group) | change of the surface percentage for CD3+ compared to the control group (in words) (CD3+ T-cells; similar design, added to the feed) |
| --- | --- | --- | --- | --- | --- | --- | --- | --- | --- | --- | --- | --- |
| CCCC(=O)[O-].C[N+](C)(C)CCO [choline butyrate] | more animals died | 13 | 2.22 | 7 | 779 | 21 | 1231 | 27 | 23 | 5 | 1.57 |  |
| CCCC(=O)OCC[N+](C)(C)C [butyrylcholine, (N,N,N-trimethyl)-2-ammoniumethylbutanoate] |  |  |  |  |  | 21 |  |  |  | 5 |  | increase |
